The subject of assay [1] is stimulated PBMC (actively dividing cells). The assay can be described thus: IC50 on stimulated PBMC (intrinsic toxicity). Conditions: Homo sapiens, stimulated PBMC. The assay is classed as cell-based.
Description: (§2) The IC50 in PBMC were tested in 2 different activation status: • stimulated—actively dividing cells • resting—quiescent, non-dividing cells
(§3) IC50 of the compounds was determined on fresh cells isolated from human blood (PBMC).
The test system of assay [2] is resting PBMC (quiescent, non-dividing cells). The assay can be described thus: IC50 on resting PBMC (intrinsic toxicity). The settings on record: Homo sapiens, resting PBMC. Type of assay: cell-based.
Description: as §2, §3
The test system of another assay is MDA-MB-231 TNBC cells. Description: In vitro proliferation / cytotoxic assay, MDA-MB-231. Type of assay: cell-based. Conditions: Homo sapiens; MDA-MB-231 (ER−PR−GR++); 72 hours; Table VI; unit inferred; read-out: IC50 on breast cancer cells.
The test system of another assay is HT29 colon cancer cells. Description: In vitro proliferation, HT29 (cancer cell panel). The settings on record: Homo sapiens. The assay is classed as cell-based. On the procedure:
Each compounds was titrated from 3 uM to 200 uM.

A further assay concerns the target T1, wild type AR (AR-LBD) (Rattus norvegicus, UniProt P15207).
T1 construct: purchased life Technologies
Description: AR competition binding assay (Polar Screen, fluorescence polarization). Conditions: displacement of Fluormone AL Green from AR-LBD; read-out: affinity for AR receptor (IC50 molar).

The target in assay [3] is T2, Glucocorticoid Receptor (Homo sapiens, UniProt P04150).
T2 construct: endogenous in cells; host or cells: human kidney epithelial cells
T2 sequence (P04150 1-777): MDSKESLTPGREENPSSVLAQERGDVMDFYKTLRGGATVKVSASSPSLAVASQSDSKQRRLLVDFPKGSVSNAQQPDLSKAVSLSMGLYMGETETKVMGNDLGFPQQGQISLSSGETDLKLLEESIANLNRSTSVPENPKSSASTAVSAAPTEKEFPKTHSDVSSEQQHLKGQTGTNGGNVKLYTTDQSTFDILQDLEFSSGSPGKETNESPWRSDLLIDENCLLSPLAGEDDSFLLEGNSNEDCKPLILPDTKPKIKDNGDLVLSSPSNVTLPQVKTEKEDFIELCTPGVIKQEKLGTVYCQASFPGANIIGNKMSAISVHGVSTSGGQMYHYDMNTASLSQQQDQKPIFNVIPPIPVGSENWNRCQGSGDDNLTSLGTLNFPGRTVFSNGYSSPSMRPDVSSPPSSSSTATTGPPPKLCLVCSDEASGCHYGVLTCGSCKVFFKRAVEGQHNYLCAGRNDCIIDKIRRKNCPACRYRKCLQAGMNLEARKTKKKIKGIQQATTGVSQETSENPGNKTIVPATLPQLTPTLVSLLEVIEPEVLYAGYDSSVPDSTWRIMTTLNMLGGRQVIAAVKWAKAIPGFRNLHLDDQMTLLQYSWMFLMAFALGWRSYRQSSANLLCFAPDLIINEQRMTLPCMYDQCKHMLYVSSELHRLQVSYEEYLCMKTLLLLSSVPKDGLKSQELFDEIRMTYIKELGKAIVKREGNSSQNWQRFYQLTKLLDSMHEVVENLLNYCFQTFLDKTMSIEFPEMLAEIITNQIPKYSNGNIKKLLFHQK
The assay can be described thus: GR reporter assay, antagonist mode. The assay is classed as cell-based. The settings on record: FIG. 7. How it is done: (§1) The androgen and glucocorticoid hormones elicit divergent and often opposing effects in cells, tissues, and animals. […] CB-03-10 GR antagonist and agonist activities were tested in an in vitro assay. Briefly, human kidney epithelial cells were transfected with DNA construct containing GR binding sites linked to luminescent based reporter molecule. After 24 hours, cells were treated under antagonist or agonist modes. After an additional 24 hours, luminescence which is proportional to GR agonist transcriptional activity was quantitated.
Antagonist Assay was based on inhibition of luminescence induced by Dexamethasone (Dex).
The antagonist activity of CB-03-10 was compared to a known GR antagonist, Mifepristone (also called RU486) as shown in FIG. 7.

Assay [4] deals with T2, Glucocorticoid Receptor. Description: GR reporter assay, agonist mode. The assay is classed as cell-based. The settings on record: at very high concentrations. On the procedure:
as §1
Agonist Assay—was based on induction of luminescence by CB-03-10
The agonist activity of CB-03-10 was compared to a RU486 which is known to not have agonist activity.

Another assay concerns MiaPaca2 cells. Description: Annexin V / propidium iodide apoptosis assay. Type of assay: cell-based, human. Conditions: 24 hours, control 11%. On the procedure:
CB-03-10 was evaluated to determine if the mechanism of cytotoxicity on cancer cell lines was mediated by apoptosis and cell cycle arrest. Cancer cell lines were seeded in 6-well flat bottom plates. After 24 hours test compounds or DMSO vehicle (negative control) were added. After an additional 24 hours cells were scraped and stained with fluorescein conjugated Annexin V and propidium iodide and analyzed by flow cytometry.

For assay [5], the system named is Caspase 8, 9 and 3/7 in LNCaP cells. Description: Caspase activity in LNCaP cells. The assay is classed as cell-based, human. Conditions: 24 hours. How it is done:
After 24 hours test compounds were added to cells, Gemcitabine (a known pancreatic cancer chemotherapeutic agent) and DMSO were used as positive and negative control, respectively. After 8, 24, & 48 hours incubation with test compounds, cells were lysed in buffer containing the caspase 3/7 or 8 or 9 substrate and a stable luciferase in proprietary buffers. The lysates were transferred to white opaque plates before measuring luminescence in a Tecan Safire instrument. Parallel plates treated identically, were used to determine viable cells. All caspase activities were corrected for the number of viable cells.
Same assay was repeated using LNCaP prostate cancer cell lines (FIG. 12). […] The results are shown in FIG. 12 at 24 hours incubation when the caspase activities peaked.

The subject of assay [6] is PSA secretion from LNCaP prostate cancer cells. Description: PSA secretion from LNCaP cells (Elisa). Type of assay: cell-based. Conditions: Homo sapiens, 48 hours, read-out: IC50, inhibition of PSA secretion. How it is done:
Prostate-specific antigen, or PSA, is a protein produced by cells of the prostate gland. The PSA test measures the level of PSA in a person's blood. The blood level of PSA is often elevated in men with prostate cancer and it used as surrogate marker to test prostate cancer progression in human population. After the observation that CB-03-10 was able to inhibit in vivo the growth of prostate cancer, the capability of the compound to inhibit in vitro PSA secretion from cancer cells was determined. […] After 48 hours incubation with test compounds, supernatants were harvested and tested with an Elisa assay for PSA and same cells were lysed for cell viability assessment.

Another assay deals with LNCaP cells. Description: LNCaP cell viability in the PSA secretion experiment. The assay is classed as cell-based. The settings on record: Homo sapiens, 48 hours, same cells as PSA assay. How it is done:
Prostate-specific antigen, or PSA, is a protein produced by cells of the prostate gland. The PSA test measures the level of PSA in a person's blood. The blood level of PSA is often elevated in men with prostate cancer and it used as surrogate marker to test prostate cancer progression in human population. […] After 48 hours incubation with test compounds, supernatants were harvested and tested with an Elisa assay for PSA and same cells were lysed for cell viability assessment.

Consider one molecule from US10183030B2, “17α,21-diesters of cortexolone for use in the treatment of tumors” (COSMO TECHNOLOGIES LTD., priority 2014, dated 2019).

The structures appear in SMILES notation. Read-outs that look alike come from different tables or passages of the source.

T1 sequence (P15207 651-882 limits assumed): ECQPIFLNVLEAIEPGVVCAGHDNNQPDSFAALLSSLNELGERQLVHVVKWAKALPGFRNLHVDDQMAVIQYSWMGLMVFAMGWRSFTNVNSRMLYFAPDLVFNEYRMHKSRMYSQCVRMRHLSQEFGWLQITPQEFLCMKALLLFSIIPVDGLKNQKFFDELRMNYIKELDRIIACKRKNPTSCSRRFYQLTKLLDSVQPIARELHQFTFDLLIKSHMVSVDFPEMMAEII
Description for MDA-MB-231 TNBC cells: After 72 hours incubation cell were harvested, lysed and viability determined using the cell titer glow assay for viability.
Description for wild type AR (AR-LBD): Briefly, the AR was added to a fluorescent androgen ligand (Fluormone™ AL Green) to from the complex AR-LBD. Competitors displaced the fluorescent Fluormone™ AL Green ligand from the AR-LBD causing the fluorescent ligand to tumble rapidly during its fluorescence lifetime, resulting in a low polarization value. Non competitors will not displace the fluorescent ligand from the complex, so the polarization value remains high. The shift in polarization value in the presence of test compounds is used to determine relative affinity of test compounds for AR-LBD.

Consider `CCCCC(=O)O[C@]1(C(=O)COC(=O)CC)CC[C@H]2[C@@H]3CCC4=CC(=O)CC[C@]4(C)[C@H]3CC[C@@]21C` [CB-03-10, cortexolone 17α-valerate-21-propionate], for which the IC50 in assay [1] (Example 7, Experiment 1, read-out: IC50 (microM) on Stimulated PBMC) amounted to 106 µM; in [1] (Example 7, Experiment 2, read-out: IC50 (microM) on Stimulated PBMC), 94 µM; in assay [2] (Example 7, Experiment 1, read-out: IC50 (microM) on Resting PBMC) it was 114 µM; in assay [2] (Example 7, Experiment 2, read-out: IC50 (microM) on Resting PBMC), 120 µM; with MDA-MB-231 TNBC cells, 106 µM; with HT29 colon cancer cells (HT-29, read-out: In vitro proliferation IC50 (micro Molar)) it was 14 µM. Besides, the IC50 in the assay with HT29 colon cancer cells (HT-29, read-out: in vitro proliferation IC50 (μ/M)) stood at 14 µM; at wild type AR (AR-LBD), 1.1 µM; in assay [6], 9 µM; in the assay with LNCaP cells it was 11 µM. At Glucocorticoid Receptor [3], the “GR antagonist potency relative to RU486” value came to 10 times less. Further, the GR antagonist activity result at Glucocorticoid Receptor [3] (inhibition of luminescence induced by Dexamethasone) was “potent antagonist”. The “GR agonist activity relative to 50 nM Dex” value at Glucocorticoid Receptor [4] came to 20%. Besides, the “cells in apoptosis (early and late), total” value in the assay with MiaPaca2 cells turned out to be 28%. Further, the “induction of Initiator (8 and 9) and Effector (3/7) caspase activities” value in assay [5] is “better than Enzalutamide”.
